ChEMBL document CHEMBL3734705, “Synthesis and in vitro cytotoxicity of novel C-12 substituted-14-deoxy-andrographolide derivatives as potent anti-cancer agents” (2015)

Legend:
EKVX = assay: Cytotoxicity against human EKVX cells assessed as growth level at 10 uM after 48 hrs by SRB assay; assay type: functional
[1] = Cytotoxicity against human IGROV1 cells assessed as growth level at 10 uM after 48 hrs by SRB assay; assay type: functional, IGROV-1
SR = assay: Cytotoxicity against human SR cells assessed as growth level at 10 uM after 48 hrs by SRB assay; assay type: functional
SK-MEL-28 = assay: Cytotoxicity against human SK-MEL-28 cells assessed as growth level at 10 uM after 48 hrs by SRB assay; assay type: functional
M14 = assay: Cytotoxicity against human M14 cells assessed as growth level at 10 uM after 48 hrs by SRB assay; assay type: functional
[2] = Cytotoxicity against human SNB75 cells assessed as growth level at 10 uM after 48 hrs by SRB assay; assay type: functional, SNB-75
[3] = Cytotoxicity against human HL-60(TB) cells assessed as growth level at 10 uM after 48 hrs by SRB assay; assay type: functional
NCI-H23 = assay: Cytotoxicity against human NCI-H23 cells assessed as growth level at 10 uM after 48 hrs by SRB assay; assay type: functional
NCI-H226 = assay: Cytotoxicity against human NCI-H226 cells assessed as growth level at 10 uM after 48 hrs by SRB assay; assay type: functional
[4] = Cytotoxicity against human DU145 cells assessed as growth level at 10 uM after 48 hrs by SRB assay; assay type: functional, DU-145
[5] = Cytotoxicity against human SF295 cells assessed as growth level at 10 uM after 48 hrs by SRB assay; assay type: functional, SF-295
KM12 = assay: Cytotoxicity against human KM12 cells assessed as growth level at 10 uM after 48 hrs by SRB assay; assay type: functional
[6] = Cytotoxicity against human HCT15 cells assessed as growth level at 10 uM after 48 hrs by SRB assay; assay type: functional, HCT-15
[7] = Cytotoxicity against human PC3 cells assessed as growth level at 10 uM after 48 hrs by SRB assay; assay type: functional, PC-3
A498 = assay: Cytotoxicity against human A498 cells assessed as growth level at 10 uM after 48 hrs by SRB assay; assay type: functional
[8] = Cytotoxicity against human OVCAR3 cells assessed as growth level at 10 uM after 48 hrs by SRB assay; assay type: functional, OVCAR-3
[9] = Cytotoxicity against human TK10 cells assessed as growth level at 10 uM after 48 hrs by SRB assay; assay type: functional, TK-10
[10] = Cytotoxicity against human HCC2998 cells assessed as growth level at 10 uM after 48 hrs by SRB assay; assay type: functional, HCC 2998
[11] = Cytotoxicity against human OVCAR4 cells assessed as growth level at 10 uM after 48 hrs by SRB assay; assay type: functional, OVCAR-4
[12] = Cytotoxicity against human SF268 cells assessed as growth level at 10 uM after 48 hrs by SRB assay; assay type: functional, SF-268
[13] = Cytotoxicity against human NCI-ADR-RES cells assessed as growth level at 10 uM after 48 hrs by SRB assay; assay type: functional
[14] = Cytotoxicity against human SF539 cells assessed as growth level at 10 uM after 48 hrs by SRB assay; assay type: functional, SF-539
[15] = Cytotoxicity against human MOLT4 cells assessed as growth level at 10 uM after 48 hrs by SRB assay; assay type: functional, MOLT-4
[16] = Cytotoxicity against human HOP92 cells assessed as growth level at 10 uM after 48 hrs by SRB assay; assay type: functional, HOP-92
U-251 = assay: Cytotoxicity against human U251 cells assessed as growth level at 10 uM after 48 hrs by SRB assay; assay type: functional
SK-MEL-5 = assay: Cytotoxicity against human SK-MEL-5 cells assessed as growth level at 10 uM after 48 hrs by SRB assay; assay type: functional
NCI-H460 = assay: Cytotoxicity against human NCI-H460 cells assessed as growth level at 10 uM after 48 hrs by SRB assay; assay type: functional
HT-29 = assay: Cytotoxicity against human HT-29 cells assessed as growth level at 10 uM after 48 hrs by SRB assay; assay type: functional
CCRF-CEM = assay: Cytotoxicity against human CCRF-CEM cells assessed as growth level at 10 uM after 48 hrs by SRB assay; assay type: functional
ACHN = assay: Cytotoxicity against human ACHN cells assessed as growth level at 10 uM after 48 hrs by SRB assay; assay type: functional
MDA-MB-231 = assay: Cytotoxicity against human MDA-MB-231 cells assessed as growth level at 10 uM after 48 hrs by SRB assay; assay type: functional
MDA-MB-468 = assay: Cytotoxicity against human MDA-MB-468 cells assessed as growth level at 10 uM after 48 hrs by SRB assay; assay type: functional
NCI-H522 = assay: Cytotoxicity against human NCI-H522 cells assessed as growth level at 10 uM after 48 hrs by SRB assay; assay type: functional
[17] = Cytotoxicity against human HCT116 cells assessed as growth level at 10 uM after 48 hrs by SRB assay; assay type: functional, HCT-116
NCI-H322M = assay: Cytotoxicity against human NCI-H322M cells assessed as growth level at 10 uM after 48 hrs by SRB assay; assay type: functional
[18] = Cytotoxicity against human HOP62 cells assessed as growth level at 10 uM after 48 hrs by SRB assay; assay type: functional, HOP-62
786-0 = assay: Cytotoxicity against human 786-0 cells assessed as growth level at 10 uM after 48 hrs by SRB assay; assay type: functional
[19] = Cytotoxicity against human Hs578T cells assessed as growth level at 10 uM after 48 hrs by SRB assay; assay type: functional, Hs-578T
[20] = Cytotoxicity against human SNB19 cells assessed as growth level at 10 uM after 48 hrs by SRB assay; assay type: functional, SNB-19
[21] = Cytotoxicity against human SW620 cells assessed as growth level at 10 uM after 48 hrs by SRB assay; assay type: functional, SW-620
[22] = Cytotoxicity against human OVCAR5 cells assessed as growth level at 10 uM after 48 hrs by SRB assay; assay type: functional, OVCAR-5
[23] = Cytotoxicity against human SKOV3 cells assessed as growth level at 10 uM after 48 hrs by SRB assay; assay type: functional, SK-OV-3
[24] = Cytotoxicity against human UACC257 cells assessed as growth level at 10 uM after 48 hrs by SRB assay; assay type: functional, UACC-257
[25] = Cytotoxicity against human RXF393 cells assessed as growth level at 10 uM after 48 hrs by SRB assay; assay type: functional, RXF 393
[26] = Cytotoxicity against human UACC62 cells assessed as growth level at 10 uM after 48 hrs by SRB assay; assay type: functional, UACC-62
[27] = Cytotoxicity against human COLO205 cells assessed as growth level at 10 uM after 48 hrs by SRB assay; assay type: functional, COLO 205
MDA-MB-435 = assay: Cytotoxicity against human MDA-MB-435 cells assessed as growth level at 10 uM after 48 hrs by SRB assay; assay type: functional
T47D = assay: Cytotoxicity against human T47D cells assessed as growth level at 10 uM after 48 hrs by SRB assay; assay type: functional
[28] = Cytotoxicity against human LOXIMVI cells assessed as growth level at 10 uM after 48 hrs by SRB assay; assay type: functional, LOX IMVI
MCF7 = assay: Cytotoxicity against human MCF7 cells assessed as growth level at 10 uM after 48 hrs by SRB assay; assay type: functional
[29] = Cytotoxicity against human RPMI8226 cells assessed as growth level at 10 uM after 48 hrs by SRB assay; assay type: functional, RPMI-8226
[30] = Cytotoxicity against human OVCAR8 cells assessed as growth level at 10 uM after 48 hrs by SRB assay; assay type: functional, OVCAR-8
A549 = assay: Cytotoxicity against human A549 cells assessed as growth level at 10 uM after 48 hrs by SRB assay; assay type: functional
[31] = Cytotoxicity against human BT549 cells assessed as growth level at 10 uM after 48 hrs by SRB assay; assay type: functional, BT-549
[32] = Cytotoxicity against human UO31 cells assessed as growth level at 10 uM after 48 hrs by SRB assay; assay type: functional, UO-31
SN12C = assay: Cytotoxicity against human SN12C cells assessed as growth level at 10 uM after 48 hrs by SRB assay; assay type: functional
K562 = assay: Cytotoxicity against human K562 cells assessed as growth level at 10 uM after 48 hrs by SRB assay; assay type: functional
Malme-3M = assay: Cytotoxicity against human MALME-3M cells assessed as growth level at 10 uM after 48 hrs by SRB assay; assay type: functional
[33] = Cytotoxicity against human Caki1 cells assessed as growth level at 10 uM after 48 hrs by SRB assay; assay type: functional, CAKI-1
SK-MEL-2 = assay: Cytotoxicity against human SK-MEL-2 cells assessed as growth level at 10 uM after 48 hrs by SRB assay; assay type: functional

Work on `C=C1CC[C@@H]2[C@](C)(COC(C)=O)[C@H](OC(C)=O)CC[C@@]2(C)[C@@H]1CC(NCCCCCCCCCCCCCCCCCC)C1=CCOC1=O` (mixture of isomers) yielded an Activity (EKVX) of 111.12%, an Activity [1] of 110.04% and an Activity (SR) of 101.94%. For the same compound, the Activity (SK-MEL-28) was 111.23%, the Activity (M14) was 102.16% and the Activity [2] was 87.94%. For the same compound, the Activity [3] was 100.5%, the Activity (NCI-H23) was 100.06% and the Activity (NCI-H226) was 92.06%. For the same compound, the Activity [4] was 108.9%, the Activity [5] was 112.48% and the Activity (KM12) was 107.75%. The Activity [6] was 117.13%, the Activity [7] was 89.57% and the Activity (A498) was 100.06%. For the same compound, the Activity [8] was 103.35%, the Activity [9] was 102.72% and the Activity [10] was 114%. The Activity [11] was 114.35%, the Activity [12] was 100.29% and the Activity [13] was 101.33%. The Activity [14] was 101.6%, the Activity [15] was 95.91% and the Activity [16] was 80.59%. For the same compound, the Activity (U-251) was 101.78%, the Activity (SK-MEL-5) was 101.04% and the Activity (NCI-H460) was 105.91%. For the same compound, the Activity (HT-29) was 103.31%, the Activity (CCRF-CEM) was 104.64% and the Activity (ACHN) was 113.27%. The Activity (MDA-MB-231) was 96.62%, the Activity (MDA-MB-468) was 99.82% and the Activity (NCI-H522) was 98.04%. For the same compound, the Activity [17] was 105.04%, the Activity (NCI-H322M) was 102.69% and the Activity [18] was 96.46%. It also gave an Activity (786-0) of 106.62%, an Activity [19] of 103.17% and an Activity [20] of 102.65%. The Activity [21] was 101.13%, the Activity [22] was 108.25% and the Activity [23] was 102.04%. The Activity [24] was 108.48%, the Activity [25] was 109.25% and the Activity [26] was 97.28%. It also gave an Activity [27] of 103.75%, an Activity (MDA-MB-435) of 107% and an Activity (T47D) of 97.23%. For the same compound, the Activity [28] was 98.11%, the Activity (MCF7) was 101.73% and the Activity [29] was 101.07%. It also gave an Activity [30] of 104.57%, an Activity (A549) of 101.56% and an Activity [31] of 106.47%. The Activity [32] was 88.83%, the Activity (SN12C) was 103.39% and the Activity (K562) was 104.45%. The Activity (Malme-3M) was 111.94% and the Activity [33] was 97.66%.

With `C=C1CC[C@@H]2[C@](C)(COC(C)=O)[C@H](OC(C)=O)CC[C@@]2(C)[C@@H]1CC(NC1CC1)C1=CCOC1=O` (mixture of isomers) the Activity (EKVX) was 86.69%, the Activity [1] was 96% and the Activity (SR) was 73.84%. It also gave an Activity (SK-MEL-28) of 107.72%, an Activity (M14) of 93.67% and an Activity [2] of 90.39%. The Activity [3] was 102.95%, the Activity (NCI-H23) was 98.94% and the Activity (NCI-H226) was 106.3%. For the same compound, the Activity [4] was 98.78%, the Activity [5] was 97.25% and the Activity (KM12) was 90.49%. It also gave an Activity [6] of 93.63%, an Activity [7] of 77.06% and an Activity (A498) of 102.06%. For the same compound, the Activity [8] was 96.85%, the Activity [9] was 98.64% and the Activity [10] was 102.97%. The Activity [11] was 101.59%, the Activity [12] was 93.53% and the Activity [13] was 98.35%. For the same compound, the Activity [14] was 95.4%, the Activity [15] was 87.21% and the Activity [16] was 83.7%. The Activity (U-251) was 96.2%, the Activity (SK-MEL-5) was 96.5% and the Activity (NCI-H460) was 105.35%. For the same compound, the Activity (HT-29) was 100.7%, the Activity (CCRF-CEM) was 95.35% and the Activity (ACHN) was 98.37%. The Activity (MDA-MB-231) was 100.99%, the Activity (MDA-MB-468) was 91.77% and the Activity (NCI-H522) was 78.4%. For the same compound, the Activity [17] was 88.19%, the Activity (NCI-H322M) was 98.57% and the Activity [18] was 102.23%. The Activity (786-0) was 107.45%, the Activity [19] was 110.62% and the Activity [20] was 100.97%. The Activity [21] was 115.37%, the Activity [22] was 110.21% and the Activity (SK-MEL-2) was 104.35%. For the same compound, the Activity [23] was 102.92%, the Activity [24] was 100.57% and the Activity [25] was 116.59%. The Activity [26] was 84.5%, the Activity [27] was 106.86% and the Activity (MDA-MB-435) was 96.33%. For the same compound, the Activity (T47D) was 79.56%, the Activity [28] was 94% and the Activity (MCF7) was 85.36%. The Activity [29] was 70.32%, the Activity [30] was 105.48% and the Activity (A549) was 82.92%. The Activity [31] was 86.41%, the Activity [32] was 82.44% and the Activity (SN12C) was 101.14%. The Activity (K562) was 74.16%, the Activity (Malme-3M) was 89.64% and the Activity [33] was 98.25%.
